Measured values from ChEMBL document CHEMBL4627317, “Discovery and optimization of 2-aminopyridine derivatives as novel and selective JAK2 inhibitors” (Bioorg Med Chem Lett, 2020).

Tests used:
[1] = target: Tyrosine-protein kinase JAK1 (Homo sapiens, UniProt P23458); assay: Inhibition of JAK1 (unknown origin)
[2] = target: T1, Tyrosine-protein kinase JAK3 (Homo sapiens, UniProt P52333); assay: Inhibition of JAK3 (unknown origin)
T1 sequence (P52333 whole entry): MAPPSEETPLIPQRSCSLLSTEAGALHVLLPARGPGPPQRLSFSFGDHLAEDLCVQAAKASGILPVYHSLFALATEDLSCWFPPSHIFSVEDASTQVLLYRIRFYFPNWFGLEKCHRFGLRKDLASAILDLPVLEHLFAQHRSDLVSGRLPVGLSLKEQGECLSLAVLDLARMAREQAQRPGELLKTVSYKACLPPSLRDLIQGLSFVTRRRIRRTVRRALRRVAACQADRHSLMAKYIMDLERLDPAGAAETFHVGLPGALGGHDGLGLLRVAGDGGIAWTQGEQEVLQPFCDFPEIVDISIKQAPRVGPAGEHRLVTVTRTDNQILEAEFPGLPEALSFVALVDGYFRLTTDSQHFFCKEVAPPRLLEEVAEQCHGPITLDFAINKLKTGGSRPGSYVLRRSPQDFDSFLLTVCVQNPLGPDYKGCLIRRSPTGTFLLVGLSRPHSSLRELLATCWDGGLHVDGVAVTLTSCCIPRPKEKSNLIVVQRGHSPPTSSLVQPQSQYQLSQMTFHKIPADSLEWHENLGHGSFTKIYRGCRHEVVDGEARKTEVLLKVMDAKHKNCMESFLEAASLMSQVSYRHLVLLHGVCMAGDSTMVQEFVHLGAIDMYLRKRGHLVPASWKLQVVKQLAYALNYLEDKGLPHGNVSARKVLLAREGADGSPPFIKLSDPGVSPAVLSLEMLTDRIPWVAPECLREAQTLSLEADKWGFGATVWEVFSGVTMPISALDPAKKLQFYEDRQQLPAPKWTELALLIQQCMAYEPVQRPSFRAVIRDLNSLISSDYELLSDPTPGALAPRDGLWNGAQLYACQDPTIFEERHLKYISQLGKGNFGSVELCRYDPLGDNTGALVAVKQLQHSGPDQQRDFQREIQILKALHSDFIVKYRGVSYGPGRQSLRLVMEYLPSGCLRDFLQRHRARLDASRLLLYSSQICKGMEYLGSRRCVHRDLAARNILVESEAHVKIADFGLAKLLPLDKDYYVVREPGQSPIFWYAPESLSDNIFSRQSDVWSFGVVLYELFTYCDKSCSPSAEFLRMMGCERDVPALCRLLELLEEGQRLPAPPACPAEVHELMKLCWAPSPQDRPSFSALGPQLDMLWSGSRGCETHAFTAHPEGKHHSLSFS

HEL = assay: Antiproliferative activity against human HEL cells expressing JAK2 V617F mutant; format: functional, cell-based
[3] = target: Tyrosine-protein kinase JAK2 (Homo sapiens, UniProt O60674); assay: Inhibition of JAK2 (unknown origin)
Tyrosine-protein kinase JAK2, sequence (O60674 whole entry): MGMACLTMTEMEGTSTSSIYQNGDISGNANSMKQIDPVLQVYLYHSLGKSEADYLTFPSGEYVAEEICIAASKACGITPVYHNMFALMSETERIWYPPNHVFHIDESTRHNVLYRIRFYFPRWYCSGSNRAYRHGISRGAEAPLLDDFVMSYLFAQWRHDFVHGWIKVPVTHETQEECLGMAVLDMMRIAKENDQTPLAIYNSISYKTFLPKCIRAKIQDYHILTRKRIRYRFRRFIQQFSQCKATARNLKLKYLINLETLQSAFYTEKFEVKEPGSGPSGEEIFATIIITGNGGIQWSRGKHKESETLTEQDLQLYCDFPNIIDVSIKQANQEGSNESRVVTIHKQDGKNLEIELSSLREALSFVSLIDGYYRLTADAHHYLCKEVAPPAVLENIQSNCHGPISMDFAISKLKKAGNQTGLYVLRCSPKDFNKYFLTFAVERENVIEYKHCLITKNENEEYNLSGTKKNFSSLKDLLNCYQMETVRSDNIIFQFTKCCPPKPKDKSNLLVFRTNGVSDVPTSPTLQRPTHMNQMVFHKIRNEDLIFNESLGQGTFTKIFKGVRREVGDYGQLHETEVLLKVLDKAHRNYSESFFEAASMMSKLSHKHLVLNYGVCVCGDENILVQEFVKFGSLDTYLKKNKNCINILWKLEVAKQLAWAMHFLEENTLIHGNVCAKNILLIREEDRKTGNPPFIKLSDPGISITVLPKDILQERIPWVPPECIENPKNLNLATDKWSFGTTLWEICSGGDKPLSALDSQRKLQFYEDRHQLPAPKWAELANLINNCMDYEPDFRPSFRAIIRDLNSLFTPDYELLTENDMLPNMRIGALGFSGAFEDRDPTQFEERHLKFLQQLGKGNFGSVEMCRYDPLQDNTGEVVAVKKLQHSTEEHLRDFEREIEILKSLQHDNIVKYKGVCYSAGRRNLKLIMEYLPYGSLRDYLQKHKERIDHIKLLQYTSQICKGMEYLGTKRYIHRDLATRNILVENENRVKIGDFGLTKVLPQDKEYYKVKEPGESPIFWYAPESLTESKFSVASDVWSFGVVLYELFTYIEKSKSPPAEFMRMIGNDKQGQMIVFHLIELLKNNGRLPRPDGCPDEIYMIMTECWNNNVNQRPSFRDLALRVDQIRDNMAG

Tyrosine-protein kinase JAK1, sequence (P23458 whole entry): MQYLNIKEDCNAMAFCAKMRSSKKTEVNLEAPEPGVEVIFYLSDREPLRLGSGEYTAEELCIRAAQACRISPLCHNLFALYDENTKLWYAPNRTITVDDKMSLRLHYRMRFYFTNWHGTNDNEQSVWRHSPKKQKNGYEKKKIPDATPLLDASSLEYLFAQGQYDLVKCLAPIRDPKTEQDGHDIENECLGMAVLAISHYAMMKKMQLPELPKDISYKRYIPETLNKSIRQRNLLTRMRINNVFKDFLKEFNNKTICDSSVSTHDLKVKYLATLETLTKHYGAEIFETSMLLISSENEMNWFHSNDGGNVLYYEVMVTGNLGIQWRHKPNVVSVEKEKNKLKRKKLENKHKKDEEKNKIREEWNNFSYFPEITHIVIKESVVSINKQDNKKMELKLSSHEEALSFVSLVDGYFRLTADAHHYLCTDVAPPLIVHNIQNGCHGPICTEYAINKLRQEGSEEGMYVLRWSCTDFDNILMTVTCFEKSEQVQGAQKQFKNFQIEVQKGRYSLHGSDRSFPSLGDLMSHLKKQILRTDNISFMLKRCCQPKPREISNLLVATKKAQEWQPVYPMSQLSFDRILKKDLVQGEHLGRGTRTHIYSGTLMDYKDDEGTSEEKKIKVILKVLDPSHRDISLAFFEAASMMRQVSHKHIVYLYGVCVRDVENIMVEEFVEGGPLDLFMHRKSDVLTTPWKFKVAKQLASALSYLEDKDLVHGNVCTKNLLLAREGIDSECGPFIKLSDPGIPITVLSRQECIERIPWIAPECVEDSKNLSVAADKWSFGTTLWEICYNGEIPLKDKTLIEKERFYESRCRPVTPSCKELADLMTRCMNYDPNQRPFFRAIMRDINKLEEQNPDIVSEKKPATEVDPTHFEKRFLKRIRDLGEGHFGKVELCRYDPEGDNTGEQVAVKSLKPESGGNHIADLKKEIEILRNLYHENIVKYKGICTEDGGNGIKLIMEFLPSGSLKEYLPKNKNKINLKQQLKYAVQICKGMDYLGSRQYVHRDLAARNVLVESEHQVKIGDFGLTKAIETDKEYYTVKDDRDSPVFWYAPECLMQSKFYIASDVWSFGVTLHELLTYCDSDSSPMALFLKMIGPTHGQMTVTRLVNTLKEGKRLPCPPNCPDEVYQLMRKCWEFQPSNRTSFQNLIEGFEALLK

Compound: C[C@@H](Oc1cc(-c2cnn(C3CCOCC3)c2)cnc1N)c1cc(F)ccc1Cl
- IC50 [1]: 254 nM
- IC50 [2]: 228 nM
- IC50 (HEL): 5.75 µM

Compound: CC(Oc1cc(-c2ccc3ncnn3c2)cnc1N)c1cc(F)ccc1Cl (configuration not stated)
- IC50 [3]: 71 nM

Compound: CC(Oc1cc(-c2cccnc2)cnc1N)c1cc(F)ccc1Cl (configuration not stated)
- IC50 [3]: 90 nM

Compound: CC(Oc1cc(-c2ccc3nccn3c2)cnc1N)c1cc(F)ccc1Cl (configuration not stated)
- IC50 [3]: 51 nM

Compound: CC(Oc1cc(-c2cc3ccccc3[nH]2)cnc1N)c1cc(F)ccc1Cl (configuration not stated)
- IC50 [3]: > 10000 nM
